In ChEMBL document CHEMBL1201862, “PubChem BioAssay data set” (2004):
Activity calls are given as the source filed them.

Assays:
Bcl-2-related protein A1 [1] = target: T1, Bcl-2-related protein A1 (Mus musculus, UniProt Q07440); experiment: small-molecule antagonists of Bfl-1/BH3 interaction – biochemical, TR-FRET, mouse Bfl-1, confirmation (AID 621);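 note: TR-FRET binding of GST-Bfl-1 to FITC-labelled Bid peptide via terbium antibody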
T1 sequence (Q07440 whole entry): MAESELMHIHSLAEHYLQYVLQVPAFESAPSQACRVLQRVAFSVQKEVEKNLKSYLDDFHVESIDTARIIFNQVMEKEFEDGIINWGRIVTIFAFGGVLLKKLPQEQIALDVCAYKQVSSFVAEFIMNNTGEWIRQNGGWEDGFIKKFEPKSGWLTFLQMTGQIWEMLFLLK

Bcl-2-related protein A1 [2] = target: T1, Bcl-2-related protein A1; experiment: Bfl-1 binding inhibitors, SAR follow-up, biochemical, fluorescence polarization (AID 1070)
[3] = target: Peroxisome proliferator-activated receptor gamma/Nuclear receptor coactivator 1 (Homo sapiens, UniProt P37231); experiment: (§1) TR-FRET dose response biochemical High Throughput Screening assay for agonists of the steroid receptor coactivator 1 (SRC-1) recruitment by the peroxisome proliferator-activated receptor gamma (PPAR gamma): non-selective agonists. [Related pubchem assays (depositor defined):AID1300, AID1808, AID504735, AID631]; type: protein assay
Cysteine protease ATG4B = Cysteine protease ATG4B (Homo sapiens, UniProt Q9Y4P1); type: functional;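 note: Fluorescence-based dose-response confirmation assay measuring inhibition of ATG4B activity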
Cysteine protease ATG4B, sequence (Q9Y4P1 whole entry): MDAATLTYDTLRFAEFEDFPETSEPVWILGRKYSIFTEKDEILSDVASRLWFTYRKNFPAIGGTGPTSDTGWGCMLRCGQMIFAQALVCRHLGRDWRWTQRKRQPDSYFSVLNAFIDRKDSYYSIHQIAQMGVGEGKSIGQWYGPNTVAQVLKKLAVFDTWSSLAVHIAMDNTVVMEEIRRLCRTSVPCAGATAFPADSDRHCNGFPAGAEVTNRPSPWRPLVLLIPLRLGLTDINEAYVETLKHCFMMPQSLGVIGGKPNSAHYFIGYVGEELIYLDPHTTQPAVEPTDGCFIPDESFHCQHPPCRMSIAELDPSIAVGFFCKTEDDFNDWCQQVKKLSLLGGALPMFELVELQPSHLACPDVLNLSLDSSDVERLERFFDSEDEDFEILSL

NS3 = NS3 (Hepatitis C virus, UniProt A3EZJ3); experiment: PubChem AID 2173; design: species or system Hepacivirus hominis
NS3, sequence (A3EZJ3 whole entry): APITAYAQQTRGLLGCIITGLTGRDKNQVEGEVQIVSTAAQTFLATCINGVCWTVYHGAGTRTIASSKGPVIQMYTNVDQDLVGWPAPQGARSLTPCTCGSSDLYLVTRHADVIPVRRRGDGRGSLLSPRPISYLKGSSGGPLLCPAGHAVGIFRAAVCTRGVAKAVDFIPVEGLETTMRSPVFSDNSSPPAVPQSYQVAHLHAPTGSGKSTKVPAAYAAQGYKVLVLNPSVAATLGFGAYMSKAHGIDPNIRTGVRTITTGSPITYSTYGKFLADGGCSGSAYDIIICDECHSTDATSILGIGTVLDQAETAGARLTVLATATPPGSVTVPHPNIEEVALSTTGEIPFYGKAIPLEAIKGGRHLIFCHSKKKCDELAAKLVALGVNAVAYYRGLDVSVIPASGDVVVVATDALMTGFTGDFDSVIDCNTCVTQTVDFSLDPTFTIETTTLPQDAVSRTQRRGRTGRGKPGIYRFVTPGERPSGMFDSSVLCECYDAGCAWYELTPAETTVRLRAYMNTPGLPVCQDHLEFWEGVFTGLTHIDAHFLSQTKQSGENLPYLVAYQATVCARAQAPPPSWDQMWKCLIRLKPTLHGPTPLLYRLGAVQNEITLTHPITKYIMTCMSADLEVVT

[4] = target: Peroxisome proliferator-activated receptor gamma/Nuclear receptor coactivator 3 (Homo sapiens, UniProt P37231); experiment: as §1, with “3 (SRC-3)” for “1 (SRC-1)”, “assays: 1301 (Confirmation screen.), 1048 (Primary screen.)]” for “assays (depositor defined):AID1300, AID1808, AID504735, AID631]”; type: functional
[5] = target: DNA (cytosine-5)-methyltransferase 1 (Homo sapiens, UniProt P26358); experiment: inhibition of DNA methylation by DNMT1 – biochemical, fluorescent molecular beacon, confirmation (AID 602386); type: functional
DNA (cytosine-5)-methyltransferase 1, sequence (P26358 whole entry): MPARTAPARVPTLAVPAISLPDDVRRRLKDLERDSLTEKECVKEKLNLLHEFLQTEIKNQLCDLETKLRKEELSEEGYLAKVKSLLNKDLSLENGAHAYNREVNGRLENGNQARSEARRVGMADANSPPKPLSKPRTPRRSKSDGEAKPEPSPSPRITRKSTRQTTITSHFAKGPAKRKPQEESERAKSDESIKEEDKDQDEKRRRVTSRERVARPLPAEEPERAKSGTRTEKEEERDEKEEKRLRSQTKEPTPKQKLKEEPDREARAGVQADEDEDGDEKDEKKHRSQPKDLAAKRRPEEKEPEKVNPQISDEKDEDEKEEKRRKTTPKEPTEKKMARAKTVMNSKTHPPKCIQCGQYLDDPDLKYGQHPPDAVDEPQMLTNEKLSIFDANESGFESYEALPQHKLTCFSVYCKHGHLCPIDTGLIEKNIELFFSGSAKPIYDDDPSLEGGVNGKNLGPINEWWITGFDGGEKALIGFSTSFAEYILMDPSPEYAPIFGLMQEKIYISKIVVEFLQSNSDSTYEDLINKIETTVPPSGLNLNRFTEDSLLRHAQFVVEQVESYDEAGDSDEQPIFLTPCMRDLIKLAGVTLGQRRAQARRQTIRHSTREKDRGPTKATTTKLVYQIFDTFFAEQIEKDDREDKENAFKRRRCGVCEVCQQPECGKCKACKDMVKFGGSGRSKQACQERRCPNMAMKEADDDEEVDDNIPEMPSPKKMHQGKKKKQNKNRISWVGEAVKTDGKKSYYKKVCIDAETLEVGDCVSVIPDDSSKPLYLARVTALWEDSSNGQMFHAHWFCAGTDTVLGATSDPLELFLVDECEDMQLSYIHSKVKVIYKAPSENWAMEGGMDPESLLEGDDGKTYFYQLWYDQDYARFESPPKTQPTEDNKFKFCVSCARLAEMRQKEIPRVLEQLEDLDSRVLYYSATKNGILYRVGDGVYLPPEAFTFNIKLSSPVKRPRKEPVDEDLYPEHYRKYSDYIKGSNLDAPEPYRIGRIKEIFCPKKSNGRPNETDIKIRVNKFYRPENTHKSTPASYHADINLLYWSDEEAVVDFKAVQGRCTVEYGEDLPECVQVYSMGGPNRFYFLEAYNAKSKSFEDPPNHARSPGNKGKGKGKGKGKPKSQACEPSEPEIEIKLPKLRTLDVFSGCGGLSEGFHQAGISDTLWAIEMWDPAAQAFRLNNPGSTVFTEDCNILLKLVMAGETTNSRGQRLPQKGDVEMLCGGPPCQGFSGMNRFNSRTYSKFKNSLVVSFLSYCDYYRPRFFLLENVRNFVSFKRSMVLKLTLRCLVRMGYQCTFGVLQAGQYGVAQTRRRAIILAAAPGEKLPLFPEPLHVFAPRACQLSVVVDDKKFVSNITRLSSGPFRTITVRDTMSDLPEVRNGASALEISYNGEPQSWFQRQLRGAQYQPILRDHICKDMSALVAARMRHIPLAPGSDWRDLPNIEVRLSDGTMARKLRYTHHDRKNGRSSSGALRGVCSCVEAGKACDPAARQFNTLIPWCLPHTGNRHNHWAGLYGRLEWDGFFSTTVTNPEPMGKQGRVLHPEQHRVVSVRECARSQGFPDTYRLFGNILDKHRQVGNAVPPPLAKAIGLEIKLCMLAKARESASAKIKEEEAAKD

[6] = target: Peroxisome proliferator-activated receptor gamma/Nuclear receptor coactivator 2 (Homo sapiens, UniProt P37231); experiment: TR-FRET dose response biochemical High Throughput Screening assay for agonists of the steroid receptor coactivator 2 (SRC-2) recruitment by the peroxisome proliferator-activated receptor gamma (PPAR gamma): non-selective agonists. [Related pubchem assays: 1297, 1032 ]; type: functional
Phospholipase A2 = Phospholipase A2 (Homo sapiens, UniProt P04054); type: functional;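 note: confirmatory dose-response counterscreen on phospholipase A2, testing hits that came from an ultra-high-throughput screen for ATG4B inhibitors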
Phospholipase A2, sequence (P04054 whole entry): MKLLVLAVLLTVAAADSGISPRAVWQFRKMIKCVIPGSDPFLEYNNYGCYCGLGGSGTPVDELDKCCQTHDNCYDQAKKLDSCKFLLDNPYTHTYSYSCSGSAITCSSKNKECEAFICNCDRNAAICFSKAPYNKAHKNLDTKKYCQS

[7] = Luminescence Cell-Based Dose Confirmation HTS to Identify Inhibitors of Polyadenylation.; type: functional
[8] = viability of HCT116 lacking mutant beta-catenin – cell-based, human colon tumor, dose response (AID 1045); type: functional;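 note: HCT116 colon tumor cells with beta catenin knocked out; cells exposed to compound for 60 hours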
[9] = HPDE-C7 pancreatic duct cell viability loss – fluorescence, HTS (AID 430); type: functional, cell-based; details: Homo sapiens
[10] = viability of PTEN-deleted HCT116 cells – cell-based, HCT116 PTEN knockout, dose response (AID 1047); type: functional;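 note: HCT116 colon tumor cells with PTEN knocked out; cells exposed to compound for 60 hours before readout; potency for loss of cell viability measured by luminescence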
[11] = viability loss of HPDE-C7K cells – cell-based, fluorescence, HTS, primary screen (AID 431); type: functional; details: Homo sapiens
[12] = target: FAD-linked sulfhydryl oxidase ALR (Homo sapiens, UniProt P55789); experiment: ALR-catalysed DTT oxidation blockers – biochemical, H2O2 detection, luminescence, cherry-pick, dose response (AID 493248)
FAD-linked sulfhydryl oxidase ALR, sequence (P55789 whole entry): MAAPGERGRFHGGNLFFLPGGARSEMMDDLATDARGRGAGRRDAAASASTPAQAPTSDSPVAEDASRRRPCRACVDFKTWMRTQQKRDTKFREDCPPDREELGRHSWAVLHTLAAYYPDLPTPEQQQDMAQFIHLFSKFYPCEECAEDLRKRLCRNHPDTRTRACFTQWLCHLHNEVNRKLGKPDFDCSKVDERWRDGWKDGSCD

[13] = tested on: Streptococcus sp. 'group A'; experiment: Streptococcus pyogenes SK(-)GAS viability under kanamycin – luminescence, BacTiterGlo, confirmation, counter-screen for streptokinase expression inhibitor project, dose response (AID 1900); type: functional, organism-based
BJ = experiment: growth inhibition of engineered Ras-driven BJ cells – cell-based, alamar blue fluorescence, cherrypicked samples, dose response (AID 2631); type: functional; details: Homo sapiens;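 note: confirmatory dose-response assay in RAS-dependent BJ fibroblasts engineered with TERT, LT and ST, with cytotoxicity read by fluorescence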
INS1 = experiment: INS-1E survival protection against cytokine death – cell-based, luminescence, retest, dose response (AID 449756); type: functional; details: Rattus norvegicus;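 note: cell death triggered by IL-1 beta plus TNF-alpha plus IFN-gamma mixture; protective hits raise ATP signal compared with cytokine alone wells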
cells [14] = type: functional, cell-based
[15] = target: T2, DNA repair protein RAD52 homolog (Homo sapiens, UniProt P43351); type: functional, biochemical
T2 sequence (P43351 whole entry): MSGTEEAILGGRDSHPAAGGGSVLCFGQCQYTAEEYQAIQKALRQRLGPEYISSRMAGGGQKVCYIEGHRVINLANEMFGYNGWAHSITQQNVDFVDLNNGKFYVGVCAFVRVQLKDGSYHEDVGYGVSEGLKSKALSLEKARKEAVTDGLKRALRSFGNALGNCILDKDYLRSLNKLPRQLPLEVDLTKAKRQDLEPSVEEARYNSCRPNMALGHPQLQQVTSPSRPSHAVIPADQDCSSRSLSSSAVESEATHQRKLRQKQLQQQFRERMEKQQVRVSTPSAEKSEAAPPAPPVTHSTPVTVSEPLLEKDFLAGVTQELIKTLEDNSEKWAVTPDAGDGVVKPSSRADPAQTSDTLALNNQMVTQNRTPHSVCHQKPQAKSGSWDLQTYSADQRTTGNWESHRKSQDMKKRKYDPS

HEK293 = experiment: Fluorescence-based counterscreen for potentiators or agonists of NPY-Y2: cell-based high-throughput dose response assay to identify inhibitors of cyclic nucleotide gated ion channel (CNGC) activity. In this assay, the parental HEK293 cell line transfected with a cyclic-nucleotide gated ion channel (CNGC)-based cAMP sensor is used to measure inhibition of isoproterenol-induced CNGC activity by test compound.; type: functional; details: Homo sapiens;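 note: stimulus is 1 µM isoproterenol at EC100 plus PDE inhibitor Ro 20-1724 at 25 µM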
[16] = target: Neuropeptide Y receptor type 2 (Homo sapiens, UniProt P49146); experiment: Fluorescence-based cell-based high-throughput dose response assay for agonists of NPY-Y2. [Related pubchem assays: 1703 (Screening assay (CNGC inhibitors).), 1359 (Screening assay (NPY-Y2 potentiators or agonists).), 1304 (Screening assay (NPY-Y1 potentiators or agonists).), 1710 (Screening assay (NPY-Y2 agonists).), 1791 (Summary AID.)]; type: functional
Neuropeptide Y receptor type 2, sequence (P49146 whole entry): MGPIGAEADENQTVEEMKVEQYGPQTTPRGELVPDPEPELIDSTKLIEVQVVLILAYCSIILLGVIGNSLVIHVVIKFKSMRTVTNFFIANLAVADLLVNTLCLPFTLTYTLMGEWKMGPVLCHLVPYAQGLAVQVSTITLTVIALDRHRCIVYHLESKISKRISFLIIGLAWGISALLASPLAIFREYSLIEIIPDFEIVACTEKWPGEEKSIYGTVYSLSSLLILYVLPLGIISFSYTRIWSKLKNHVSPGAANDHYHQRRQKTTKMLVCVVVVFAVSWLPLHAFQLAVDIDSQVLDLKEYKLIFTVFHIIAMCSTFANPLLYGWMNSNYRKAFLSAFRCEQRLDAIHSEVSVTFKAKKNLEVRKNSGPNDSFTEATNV

Streptococcus = experiment: GAS UMAA2166 growth inhibition – luminescence, BacTiterGlo, counter-screen for streptokinase expression inhibitor project, dose response (AID 1915); type: functional, organism-based;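 note: potency for reduction of bacterial viability or growth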
Streptokinase A = target: T3, Streptokinase A (Streptococcus pyogenes serotype M1, UniProt P10520); experiment: viability-normalized secreted streptokinase activity reduction – plasminogen activation absorbance, OD405, dose response (AID 1914); type: functional, Streptococcus pyogenes M1 GAS;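 note: secreted streptokinase activity via plasminogen activation per viability signal from cell pellet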
T3 sequence (P10520 whole entry): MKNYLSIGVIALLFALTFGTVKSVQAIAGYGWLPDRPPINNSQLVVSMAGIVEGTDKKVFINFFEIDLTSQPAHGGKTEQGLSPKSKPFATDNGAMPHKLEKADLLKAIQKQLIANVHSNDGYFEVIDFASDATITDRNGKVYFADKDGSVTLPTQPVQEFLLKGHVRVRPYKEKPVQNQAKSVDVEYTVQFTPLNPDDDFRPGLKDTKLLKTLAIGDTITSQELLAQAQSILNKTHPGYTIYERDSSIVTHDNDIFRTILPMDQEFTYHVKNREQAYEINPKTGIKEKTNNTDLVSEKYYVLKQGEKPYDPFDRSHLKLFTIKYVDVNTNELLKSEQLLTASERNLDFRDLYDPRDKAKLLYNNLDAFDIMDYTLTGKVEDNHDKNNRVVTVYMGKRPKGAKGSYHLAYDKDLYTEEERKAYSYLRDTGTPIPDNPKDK

cells [17] = type: functional, cell-based; remark: listed apart in the source
[18] = target: Neuropeptide Y receptor type 1 (Homo sapiens, UniProt P25929); experiment: Fluorescence-based counterscreen for agonists of NPY-Y2: cell-based high-throughput dose response assay for agonists of NPY-Y1.; type: functional
Neuropeptide Y receptor type 1, sequence (P25929 whole entry): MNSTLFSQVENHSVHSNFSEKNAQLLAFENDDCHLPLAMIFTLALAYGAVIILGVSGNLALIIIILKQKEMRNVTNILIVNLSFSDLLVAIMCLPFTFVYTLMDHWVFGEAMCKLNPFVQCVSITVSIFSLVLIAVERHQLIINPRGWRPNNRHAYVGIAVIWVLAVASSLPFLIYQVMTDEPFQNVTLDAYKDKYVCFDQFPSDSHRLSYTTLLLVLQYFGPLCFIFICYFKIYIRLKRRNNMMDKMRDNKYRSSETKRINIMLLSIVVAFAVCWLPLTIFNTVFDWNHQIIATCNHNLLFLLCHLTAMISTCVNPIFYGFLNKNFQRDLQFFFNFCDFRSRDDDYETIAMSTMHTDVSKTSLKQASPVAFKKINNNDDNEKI

For `C[C@@H]1CN(C2=C(Cl)C(=O)N(c3ccc(Cl)c(Cl)c3)C2=O)CCN1`, the IC50 (Bcl-2-related protein A1 [1]) was 1.03 µM (active) and the IC50 (Bcl-2-related protein A1 [2]) was 1.16 µM (active).

With `O=C1NN(c2ccccc2)C(=O)/C1=C/c1ccc(Sc2cccc3ccccc23)o1` the EC50 [3] was > 79.4 µM (inactive), the IC50 (Cysteine protease ATG4B) was 8.56 µM (active) and the IC50 (NS3) was 5.55 µM (active). The EC50 [4] was > 79.4 µM (not active), the IC50 [5] was 7.12 µM (active) and the EC50 [6] was 92.2 µM (not active). For the same compound, the IC50 (Phospholipase A2) was 8.08 µM (active).

With `O=C(O)c1ccc(SCc2cnc(Cl)s2)cc1` the EC50 [7] was > 120 µM (not active).

For `CCN(CCNC(=O)C1CCN(Cc2nc(-c3cccc(Cl)c3)oc2C)CC1)c1ccccc1`, the EC50 [8] was 10.7 µM (active), the EC50 [9] was > 20 µM (not active) and the EC50 [10] was 13.3 µM (active). The EC50 [11] was > 20 µM (not active) and the AC50 [12] was 0.024 µM (active).

With `Cc1sc2cc3c(c(C(=O)c4ccccc4)[n+]2c1C)-c1cccc2cccc-3c12` the EC50 [13] was 6.52 µM (active), the EC50 (BJ) was 30.6 µM (active) and the AC50 (INS1) was 1.91 µM (active). For the same compound, the EC50 (cells [14]) was > 350 µM (not active), the AC50 [15] was 1.43 µM (active) and the EC50 (HEK293) was 12.3 µM (not active). For the same compound, the EC50 [16] was 11.5 µM (not active), the EC50 (Streptococcus) was 23.5 µM (active) and the EC50 (Streptokinase A) was 31.9 µM (active). For the same compound, the EC50 (cells [17]) was > 350 µM (not active) and the EC50 [18] was 8.19 µM (active).
